Assay results: patent US20080015251A1, “Means and method for treating lipotoxicity and other metabolically related phenomena” (Yissum Research Development Co., of The Hebrew University …, priority 2006, published 2008)
“Also recorded” adds a separate entry of the source. Marks after values point to notes of the source that are not given here.

Experiments:
[1] = test system: rat isolated hepatocytes; assay: Nitrite in culture media (Griess reaction); type: cell-based; details: for effect on LE inhibition of nitrite levels: 0.1% LE, NAC 3 mmol/L, ascorbate 3 mmol/L, resveratrol 600 μmol/L
Protocol: Rotenone, S nitroso-N-acetyl-penicillamine (SNAP), buthionine sulfoximine (BSO), anti oxidants, or TNF-α were added to the culture medium in specific experiments. At the end of the experiment, the medium was collected and the cells were harvested for further assays.
Nitrite in culture media was measured by the Griess reaction (21). The values obtained were compared with standards of sodium nitrite dissolved in the cell culture media.

[2] = test system: rat isolated hepatocytes; assay: Reduced glutathione (GSH) by HPLC; type: cell-based
Protocol: GSH was measured using HPLC (15). […] Detection was made by an electrochemical detector. The results were adjusted to protein levels of the samples.

[3] = test system: J774.2 macrophages; assay: Cell viability by propidium iodide exclusion (membrane integrity), flow cytometry; type: cell-based, Murine; details: for protection against TG-induced lipotoxicity (rate of cell death): AA 0.5 mM, resv 0.2 mM, querc 0.2 mM, lyc 10 AM, carot 10 AM, toc 0.2 mM, LA 0.25 mM, Se 1 AM (FIG. 8A)
Protocol: Murine J774.2 macrophages were cultured in RPMI medium enriched with 10% fetal calf serum, 1% glutamine, and 1% penicillin-streptomycin. […] Prior to experimental procedures, macrophages were seeded on 6-well plates at a concentration of 50,000 cells/ml.
The physiological range of TG in plasma is up to 1.5 mg/ml. […] Other agents, such as antioxidants or cycloheximide (CH), were added as specified in the relevant figure legends.
Cell membrane integrity was detected as previously described. Briefly, cells were stained with 2 Ag/ml propidium iodide (PI) and measured by flow cytometry, (FACS Calibur, Becton Dickinson, Calif.) at the following fluorescence setting: excitation at 488 nm and emission at 575 nm. Data were collected from 10,000 cells.

[4] = test system: J774.2 macrophages; assay: Intracellular ROS, H2DCF-DA fluorescent probe, FACS; type: cell-based, Murine; details: for ROS production in TG-treated cells: 0.1% LE 24 h, rotenone 40 AM added 5 min before probe, FCCP 15 min (FIG. 2B)
Protocol: Murine J774.2 macrophages were cultured in RPMI medium enriched with 10% fetal calf serum, 1% glutamine, and 1% penicillin-streptomycin. Cells were maintained in an incubator with temperature (378C) and CO2 (5%) control. Prior to experimental procedures, macrophages were seeded on 6-well plates at a concentration of 50,000 cells/ml.
LE was added to the cell culture at a concentration of 0.1% (w/v) TG (1 mg lipids/ml). The physiological range of TG in plasma is up to 1.5 mg/ml. The cells were incubated with the LE for 12, 24, or 48 h, and then washed twice with phosphate-buffered saline (PBS), and intracellular ROS and cell viability were measured. Other agents, such as antioxidants or cycloheximide (CH), were added as specified in the relevant figure legends.
Intracellular ROS were detected using a H2DCF-DA fluorescent probe. The cells were incubated with 25 AMH2DCF-DA for 30 min at room temperature. The fluorescence was measured in a FACS, with excitation at 488 nm and emission at 530 nm. Data were collected from 10,000 cells.

[5] = test system: iNOS; assay: iNOS mRNA level by RT-PCR; type: cell-based, rat; details: 0.1% LE, NAC 3 mmol/L, 48 h
Protocol: (§1) Total RNA was prepared using TriReagent. Analyses of mRNA levels of iNOS, eNOS, and gylceraldehyde-3-phosphate dehydrogenase (GAPDH) were performed using RT-PCR. The synthesis of cDNA was carried out using a Reverse-it (ABgene) first-strand synthesis kit. The reaction was conducted at 40-55° C. for 50 min. Finally, the reaction was terminated by incubation at 70° C. for 15 min. PCR amplification was performed in the Biometra T personal cycler instrument (Biometra). Cycles were performed at 94° C. for 30 s followed by 57° C. for 30 s and 72° C. for 30 s. cDNA was incubating with ReddyMix and gene-specific PCR primers, designed using Primer 3 software (Whitehead Institute for Biomedical Research).
(§2) The primers were synthesized by MBC: eNOS, forward primer, 5′-[…]-3′, and reverse primer, 5′-[…]-3′; INOS, forward primer, 5′[…]-3′, and reverse primer, 5′-[…]-3′. As a loading control, RNA was hybridized with a probe of the housekeeping gene, GAPDH, forward primer, 5′-[…]-3′, and reverse primer, 5′-[…]-3′.
(§3) PCR products were electrophoresed on […] gel containing 5 µL ethidium bromide, and the gel image was quantified using Doc-it gel image analysis program (UVP). The number of cycles for all the genes was selected within the linear part of a standard curve.

[6] = test system: eNOS; assay: eNOS mRNA level by RT-PCR; type: cell-based, rat; details: 0.1% LE, NAC 3 mmol/L, 48 h
Protocol: as §1, §2, §3

[7] = test system: iNOS; assay: iNOS protein expression, Western blot; type: cell-based, rat; details: 0.1% LE, NAC 3 mmol/L, 48 h
Protocol: (§4) Cells were scraped and lysed in 750 μΛ of lysis buffer (20 mmol/L Tris, pH 7.8; 0.1% Nonidet P-40; 100 mmol/L NaCl; 50 mmol/L NaF; 10% glycerol, 1 mmol/L sodium orthovanadate). Lysates were centrifuged at 8500×g for 10 min. The supernatant was collected and used for the analysis of eNOS and iNOS.
(§5) Protein concentration was determined by the Bradford method (20) using bovine serum albumin as a standard. Samples were boiled for 5 min with SDS sample buffer; 60 μg of protein per sample was loaded onto a 10% SDS-polyacrylamide gel. Electroblots were blocked in Tris buffer NaCl-Tween (TBST) containing 5% skim milk powder at room temperature. Western blot analysis with a specific antibody against iNOS (Biomol), eNOS, p65, and p-c-Jun antibodies (Santa Cruz Biotechnology) was carried out. The antibodies were diluted in TBST buffer+5% skim milk and left overnight at 4° C. After a TBST washing procedure, the blots were incubated with horseradish-peroxidase labeled anti-rabbit antibody (Pierce) for 1 h at room temperature. The immune reaction was detected by enhanced chemiluminescence. Bands were quantified by scanning densitometry and expressed as arbitrary units.

[8] = test system: eNOS; assay: eNOS protein expression, Western blot; type: cell-based, rat; details: 0.1% LE, NAC 3 mmol/L, 48 h, data not shown
Protocol: as §4, §5

[9] = test system: rat isolated hepatocytes; assay: Intracellular ROS, DCF fluorescence, flow cytometer; type: cell-based
Protocol: Isolated hepatocytes were seeded at 2 […]10^9 cells/L; after 4 h, the culture medium was replaced and cells were incubated for 48 h with 0.01-0.1% LE. Rotenone, S nitroso-N-acetyl-penicillamine (SNAP), buthionine sulfoximine (BSO), anti oxidants, or TNF-α were added to the culture medium in specific experiments. At the end of the experiment, the medium was collected and the cells were harvested for further assays.
Cell membrane integrity (15), TG accumulation (22), and intracellular ROS levels (23, 24) were detected by flow cytometer (FACScalibur BD). Hepatocytes were stained with 2 mg/L DNA-interchelating dye propidium iodide, which is excluded by viable cells; with 1 mg/L Nile red, which accumulates in intracellular lipid droplets; or with […] dichlorodihydrofluorescein diacetate (H2DCF-DA), a probe that has high reactivity to hydrogen peroxide, lipid hydroperoxide, and hydroxyl radicals and low reactivity to superoxide anions (23,24). Fluorescence settings were as follows: excitation at 488 nm and emission at 575 nm for propidium iodide and Nile red and 488 nm and recorded at 530 nm for H2DCF-DA. Data were collected from 10,000 cells.

[10] = test system: caspase-3; assay: Caspase-3 (DEVDase) activity, Ac-DEVD-AMC substrate; type: cell-based, Murine; details: pretreatment for 24 h with CH (FIG. 6)
Protocol: For analysis of caspase activity, cells were incubated for 2 h in ice-cold PBS containing 0.5% Triton X-100 and 5 mM dithiothreitol (DTT). The suspension of permeabilized cells was agitated slightly and centrifuged at 14,000 g. The clear supernatant was tested for caspase-3 activity as previously described, using the caspase-3 substrate Ac-DEVD-AMC (Calbiochem, Darmstadt, Germany). Incubation was conducted in 200 Al of reaction mixture containing approximatelyl mg sample protein, in the dark, at 308 C for 4 h (linear phase of the reaction). Caspase-3 activity was expressed as arbitrary fluorescence units (AU) per mg. protein.

[11] = with or without 0.1% LE and BSO, 48 h (Table 6)
[12] = with or without 0.1% LE and rotenone, 48 h (Table 5)

`CCCCS(=N)(=O)CCC(N)C(=O)O` (stereo not drawn) [BSO, buthionine sulfoximine] was tested, and the nitrite levels ([1]; cells treated with BSO) was “decreased”, the Nitrite [1, 11] was 2.3 ± 0.3^c μmol/106 cells and the GSH ([2]; cells treated with BSO) was “decreased”. It also gave a GSH [2, 11] of 2.2 ± 0.4 nmol/mg protein.

In the case of `O=c1c(O)c(-c2ccc(O)c(O)c2)oc2cc(O)cc(O)c12` [quercetin], the “protection against TG-induced lipotoxicity (rate of cell death)” value (“protection … (rate of cell death)” for short) ([3]; 0.1% LE) was “did not have any protective effect or even enhanced the rate of cell death”.

In the case of TNF-α, the Nitrite ([1]; TNF-α (100 mU) 3 h, with or without 48 h preincubation with 0.1% LE) was 2.1 ± 0.1 μmol/106 cells, the Nitrite ([1]; TNF-α (100 mU) 6 h, with or without 48 h preincubation with 0.1% LE) was 2.1 ± 0.2 μmol/106 cells and the Nitrite ([1]; TNF-α (100 mU) 9 h, with or without 48 h preincubation with 0.1% LE) was 4.3 ± 0.2 μmol/106 cells. For the same compound, the Nitrite ([1]; TNF-α (100 mU) 12 h, with or without 48 h preincubation with 0.1% LE) was 6.5 ± 0.2 μmol/106 cells.

With `N#CC(C#N)=NNc1ccc(OC(F)(F)F)cc1` [FCCP] the “ROS production in TG-treated cells” value [4] was “decreased cellular ROS production but not as effectively as rotenone”.

With `Cc1c(C)c2c(c(C)c1O)CC[C@@](C)(CCC[C@H](C)CCC[C@H](C)CCCC(C)C)O2` [atocopherol, a-tocopherol] the “protection … (rate of cell death)” value ([3]; 0.1% LE) was “did not have any protective effect or even enhanced the rate of cell death”.

With `CC(=O)N[C@@H](CS)C(=O)O` [NAC, N-acetyl-L-cysteine] the “protection against TG-induced cell death” value ([3]; 0.1% LE, NAC 0.5 mM (FIG. 7B)) was “protected the cells against TG-induced cell death”, the “TG induced ROS production” value ([4]; 0.1% LE, NAC 0.5 mM (FIG. 7A)) was “suppressed” and the “effect on LE inhibition of nitrite levels” value [1] was “increased nitrite levels compared with controls; also recorded: Inhibition of nitrite production was abolished”. For the same compound, the “effect on LE-induced reduction of iNOS mRNA transcription” value [5] was “attenuate the LE-induced reduction”, the “effect on LE-induced reduction of eNOS mRNA transcription” value [6] was “attenuate the LE-induced reduction” and the “effect on LE-induced reduction of iNOS protein levels” value [7] was “attenuate the LE-induced reduction”. For the same compound, the “effect on LE-induced reduction of eNOS protein levels” value [8] was “attenuate the LE-induced reduction”.

With `CC(C)=CCC/C(C)=C/C=C/C(C)=C/C=C/C(C)=C/C=C/C=C(C)/C=C/C=C(C)/C=C/C=C(\C)CCC=C(C)C` [lycopene] the “protection … (rate of cell death)” value ([3]; 0.1% LE) was “did not have any protective effect or even enhanced the rate of cell death”.

For `CC(C)(C)OO` [TBH, tert-butyl hydroperoxide], the “cell viability after 48 h of exposure” value ([3]; TBH 12 AM or LE 0.1%, 48 h (FIG. 5)) was “No loss in viability”.

In the case of `CC1=C(/C=C/C(C)=C/C=C/C(C)=C/C=C/C=C(C)/C=C/C=C(C)/C=C/C2=C(C)CCCC2(C)C)C(C)(C)CCC1` [h-carotene], the “protection … (rate of cell death)” value ([3]; 0.1% LE) was “did not have any protective effect or even enhanced the rate of cell death”.

In the case of `C=C(C)[C@H]1Cc2c(ccc3c2O[C@@H]2COc4cc(OC)c(OC)cc4[C@@H]2C3=O)O1` [rotenone], the “ROS production in TG-treated cells” value [4] was “significantly decreased ROS production”, the “intracellular ROS levels” value ([9]; incubation with rotenone) was “increased intracellular ROS levels” and the “ROS (DCF fluorescence)” value [9, 12] was 530 ± 44^a AU. For the same compound, the Nitrite [1, 12] was 2.0 ± 0.2^c μmol/106 cells.

For `O=C(O)CCCCC1CCSS1` (racemic) [racemic lipoic acid, lipoic acid], the “protection … (rate of cell death)” value ([3]; 0.1% LE) was “did not have any protective effect or even enhanced the rate of cell death”.

For `Oc1ccc(C=Cc2cc(O)cc(O)c2)cc1` [resveratrol], the “protection … (rate of cell death)” value ([3]; 0.1% LE) was “significantly decreased the rate of cell death” and the “effect on LE inhibition of nitrite levels” value [1] was “partially prevented the reduction in nitrite synthesis”.

In the case of `C[C@@H]1C[C@@H]([C@H](O)CC2CC(=O)NC(=O)C2)C(=O)[C@@H](C)C1` [CH, cycloheximide], the “effect of protein-synthesis inhibition on TG cell-death effect” value ([3]; CH 0.1 AM then TG, 48 h (FIG. 6B)) was “does not prevent the cell-death effect of TG”, the “ROS production, CH treatment alone” value ([4]; CH 0.1 AM (FIG. 6)) was “decreased ROS production” and the caspase-3 activity [10] was “increased caspase-3 activity”.

With `CC(=O)N[C@H](C(=O)O)C(C)(C)SN=O` [SNAP, S-nitroso-N-acetyl-penicillamine] the “effect on ROS levels” value ([9]; SNAP in culture medium 48 h, presence or absence of LE) was “had no effect on ROS levels” and the “ROS (DCF fluorescence)” value ([9]; with or without 0.1% LE and SNAP, 48 h (Table 4)) was “SNAP 133 AU”.
